# Measurements taken from patent US10358446B2, “Bruton's tyrosine kinase inhibitors” (Zibo Biopolar Changsheng Pharmaceutical Co. Ltd., priority 2015, dated 2019).
# Molecular target: BTK (Homo sapiens (Human), UniProt Q06187)
# Test: Btk kinase assay (HTRF)
# Assay type: biochemical
# Details: [ATP]=80 μM, BTK=3.4 nM; read-out: BTK Inhibition
# Procedure, shortened: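 HTRF kinase read-out (665/615 nm ratio, excitation 330 nm) after EDTA quench and 1 h detection incubation. Reaction: 3.4 nM BTK, ATP 80 μM, peptide substrate 1 μM, compound, HEPES pH 7.0 buffer, 1 h; IC50 derived using uninhibited and enzyme-free controls.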
# Sequence of BTK (Q06187 whole entry, species assumed): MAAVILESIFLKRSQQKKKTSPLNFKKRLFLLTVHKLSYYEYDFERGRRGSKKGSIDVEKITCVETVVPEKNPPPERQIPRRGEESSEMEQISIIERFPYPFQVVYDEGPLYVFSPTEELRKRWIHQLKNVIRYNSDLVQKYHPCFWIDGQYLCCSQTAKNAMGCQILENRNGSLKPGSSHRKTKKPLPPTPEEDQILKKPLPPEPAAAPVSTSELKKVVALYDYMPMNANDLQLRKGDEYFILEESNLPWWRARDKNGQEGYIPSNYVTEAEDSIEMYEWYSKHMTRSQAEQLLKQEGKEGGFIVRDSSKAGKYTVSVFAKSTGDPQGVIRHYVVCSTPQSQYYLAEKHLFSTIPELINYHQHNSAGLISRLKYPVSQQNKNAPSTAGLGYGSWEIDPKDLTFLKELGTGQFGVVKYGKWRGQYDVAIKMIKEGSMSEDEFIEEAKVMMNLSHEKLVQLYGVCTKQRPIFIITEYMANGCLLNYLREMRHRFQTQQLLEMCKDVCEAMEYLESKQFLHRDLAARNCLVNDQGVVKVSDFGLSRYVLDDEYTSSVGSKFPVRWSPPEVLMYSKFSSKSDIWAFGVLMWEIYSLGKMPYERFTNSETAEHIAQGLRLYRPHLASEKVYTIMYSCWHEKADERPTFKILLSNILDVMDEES
row,Structure (SMILES),IC50 [nM]
1,"C=CC(=O)Nc1cccc(-n2c(=O)n(-c3ccc(Oc4ccccc4)cc3)c3cccnc32)c1 [Example 116, N-(3-(2-oxo-1-(4-phenoxyphenyl)-1H-imidazo[4,5-b]pyridin-3(2H)-yl)phenyl)acrylamide]",100 to 1000
2,"C=CC(=O)N1CCC[C@@H](n2c(=O)n(-c3ccc(Oc4cccc(F)c4)cc3)c3cnccc32)C1 [Example 117, (R)-1-(1-acryloylpiperidin-3-yl)-3-(4-(3-fluorophenoxy)phenyl)-1H-imidazo [4,5-c]pyridin-2(3H)-one]",10 to 100
3,"C=CC(=O)N1CCC[C@@H](n2c(=O)n(-c3ccc(Oc4cccc(OC)c4)cc3)c3cnccc32)C1 [Example 118, (R)-1-(1-acryloylpiperidin-3-yl)-3-(4-(3-methoxyphenoxy)phenyl)-1H-imidazo[4,5-c]pyridin-2(3H)-one]",10 to 100
4,"C=CC(=O)Nc1cccc(-n2c(=O)n(-c3ccc(Oc4ccccc4)cc3)c3ncccc32)c1 [Example 119, N-(3-(2-oxo-3-(4-phenoxyphenyl)-2,3-dihydro-1H-imidazo[4,5-b]pyridin-1-yl)phenyl)acrylamide]",1000 to 10000
5,"C=CC(=O)N1CC[C@@H](n2c(=O)n(-c3ccc(Oc4ccccc4)cc3)c3cccnc32)C1 [Example 120, (R)-3-(1-acryloylpyrrolidin-3-yl)-1-(4-phenoxyphenyl)-1H-imidazo[4,5-b]pyridin-2(3H)-one]",1000 to 10000
6,"C=CC(=O)Nc1cccc(-n2c(=O)n(-c3ccc(Oc4ccccc4)cc3)c3ccncc32)c1 [Example 121, N-(3-(2-oxo-1-(4-phenoxyphenyl)-1H-imidazo[4,5-c]pyridin-3(2H)-yl)phenyl)acrylamide]",100 to 1000
7,"C=CC(=O)N1CCC[C@@H](n2c(=O)n(-c3ccc(Oc4ccccc4)cc3)c3ccncc32)C1 [Example 122, (R)-3-(1-acryloylpiperidin-3-yl)-1-(4-phenoxyphenyl)-1H-imidazo[4,5-c]pyridin-2(3H)-one]",1000 to 10000
8,"C=CC(=O)Nc1cccc(-n2c(=O)n(-c3ccc(Oc4ccc(C(F)(F)F)cc4)cc3)c3cnccc32)c1 [Example 123, N-(3-(2-oxo-3-(4-(4-(trifluoromethyl)phenoxy)phenyl)-2,3-dihydro-1H-imidazo[4,5-c]pyridin-1-yl)phenyl)acrylamide]",≥ 10000
9,"C=CC(=O)Nc1cccc(-n2c(=O)n(-c3ccc(Oc4cccc(F)c4F)cc3)c3cnccc32)c1 [Example 125, N-(3-(3-(4-(2,3-difluorophenoxy)phenyl)-2-oxo-2,3-dihydro-1H-imidazo[4,5-c]pyridin-1-yl)phenyl)acrylamide]",10 to 100
10,"C=CC(=O)Nc1cccc(-n2c(=O)n(-c3ccc(Oc4ccc(F)c(F)c4)cc3)c3cnccc32)c1 [Example 126, N-(3-(3-(4-(3,4-difluorophenoxy)phenyl)-2-oxo-2,3-dihydro-1H-imidazo[4,5-c]pyridin-1-yl)phenyl)acrylamide]",100 to 1000
11,"C=CC(=O)Nc1cccc(-n2c(=O)n(-c3ccc(Oc4cc(F)cc(F)c4)cc3)c3cnccc32)c1 [Example 127, N-(3-(3-(4-(3,5-difluorophenoxy)phenyl)-2-oxo-2,3-dihydro-1H-imidazo[4,5-c]pyridin-1-yl)phenyl)acrylamide]",100 to 1000
12,"C=CC(=O)Nc1cccc(-n2c(=O)n(-c3ccc(Oc4cc(F)cc(Cl)c4)cc3)c3cnccc32)c1 [Example 129, N-(3-(3-(4-(3-chloro-5-fluorophenoxy)phenyl)-2-oxo-2,3-dihydro-1H-imidazo[4,5-c]pyridin-1-yl)phenyl)acrylamide]",100 to 1000
13,"C=CC(=O)Nc1cccc(-n2c(=O)n(-c3ccc(Oc4cc(Cl)cc(Cl)c4)cc3)c3cnccc32)c1 [Example 130, N-(3-(3-(4-(3,5-dichlorophenoxy)phenyl)-2-oxo-2,3-dihydro-1H-imidazo[4,5-c]pyridin-1-yl)phenyl)acrylamide]",100 to 1000
14,"C=CC(=O)Nc1cccc(-n2c(=O)n(-c3ccc(Oc4ccc(OC)c(OC)c4)cc3)c3cnccc32)c1 [Example 131, N-(3-(3-(4-(3,4-dimethoxyphenoxy)phenyl)-2-oxo-2,3-dihydro-1H-imidazo[4,5-c]pyridin-1-yl)phenyl)acrylamide]",10 to 100
15,"C=CC(=O)N1CCC[C@@H](n2c(=O)n(-c3ccc(Oc4cccc(Cl)c4C)cc3)c3cnccc32)C1 [Example 134, (R)-1-(1-acryloylpiperidin-3-yl)-3-(4-(3-chloro-2-methylphenoxy)phenyl)-1H-imidazo[4,5-c]pyridin-2(3H)-one]",10 to 100
16,"C=CC(=O)N1CC[C@@H](n2c(=O)n(-c3ccc(Oc4cccc(OC)c4Cl)cc3)c3cnccc32)C1 [Example 135, (R)-1-(1-acryloylpyrrolidin-3-yl)-3-(4-(2-chloro-3-methoxyphenoxy)phenyl)-1H-imidazo[4,5-c]pyridin-2(3H)-one]",10 to 100
17,"C=CC(=O)Nc1cccc(-n2c(=O)n(-c3ccc(Oc4cccc(F)c4OC)cc3)c3cnccc32)c1 [Example 136, N-(3-(3-(4-(3-fluoro-2-methoxyphenoxy)phenyl)-2-oxo-2,3-dihydro-1H-imidazo[4,5-c]pyridin-1-yl)phenyl)acrylamide]",10 to 100
18,"C=CC(=O)N1CC[C@@H](n2c(=O)n(-c3ccc(Oc4cccc(F)c4OC)cc3)c3cnccc32)C1 [Example 137, (R)-1-(1-acryloylpyrrolidin-3-yl)-3-(4-(3-fluoro-2-methoxyphenoxy)phenyl)-1H-imidazo[4,5-c]pyridin-2(3H)-one]",100 to 1000
19,"C=CC(=O)N1CC[C@@H](n2c(=O)n(-c3ccc(Oc4cccc(Cl)c4C)cc3)c3cnccc32)C1 [Example 139, (R)-1-(1-acryloylpyrrolidin-3-yl)-3-(4-(3-chloro-2-methylphenoxy)phenyl)-1H-imidazo[4,5-c]pyridin-2(3H)-one]",10 to 100
20,"C=CC(=O)N1CCC[C@@H](n2c(=O)n(-c3ccc(Oc4cccc(F)c4OC)cc3)c3cnccc32)C1 [Example 140, (R)-1-(1-acryloylpiperidin-3-yl)-3-(4-(3-fluoro-2-methoxyphenoxy)phenyl)-1H-imidazo[4,5-c]pyridin-2(3H)-one]",100 to 1000
21,"C=CC(=O)N1CCC[C@@H](n2c(=O)n(-c3ccc(Oc4cccc(C)c4F)cc3)c3cnccc32)C1 [Example 141, (R)-1-(1-acryloylpiperidin-3-yl)-3-(4-(2-fluoro-3-methylphenoxy)phenyl)-1H-imidazo[4,5-c]pyridin-2(3H)-one]",10 to 100
22,"C=CC(=O)N1CCC[C@@H](n2c(=O)n(-c3ccc(Oc4cccc(OC)c4C)cc3)c3cnccc32)C1 [Example 142, (R)-1-(1-acryloylpiperidin-3-yl)-3-(4-(3-methoxy-2-methylphenoxy)phenyl)-1H-imidazo[4,5-c]pyridin-2(3H)-one]",10 to 100

# Further lines, results first:
row,IC50 [nM],Structure (SMILES)
1,10 to 100,"C=CC(=O)N1CC[C@@H](n2c(=O)n(-c3ccc(Oc4cccc(OC)c4C)cc3)c3cnccc32)C1 [Example 143, (R)-1-(1-acryloylpyrrolidin-3-yl)-3-(4-(3-methoxy-2-methylphenoxy)phenyl)-1H-imidazo[4,5-c]pyridin-2(3H)-one]"
2,10 to 100,"C=CC(=O)Nc1cccc(-n2c(=O)n(-c3ccc(Oc4cccc(C)c4)c(Cl)c3)c3cnccc32)c1 [Example 144, N-(3-(3-(3-chloro-4-(m-tolyloxy)phenyl)-2-oxo-2,3-dihydro-1H-imidazo[4,5-c]pyridin-1-yl)phenyl)acrylamide]"
3,100 to 1000,"C=CC(=O)Nc1cccc(-n2c(=O)n(-c3ccc(Oc4cccc(OC(C)C)c4)c(Cl)c3)c3cnccc32)c1 [Example 145, N-(3-(3-(3-chloro-4-(3-isopropoxyphenoxy)phenyl)-2-oxo-2,3-dihydro-1H-imidazo[4,5-c]pyridin-1-yl)phenyl)acrylamide]"
4,10 to 100,"C=CC(=O)Nc1cccc(-n2c(=O)n(-c3ccc(Oc4cccc(F)c4)c(C)c3)c3cnccc32)c1 [Example 146, N-(3-(3-(4-(3-fluorophenoxy)-3-methylphenyl)-2-oxo-2,3-dihydro-1H-imidazo[4,5-c]pyridin-1-yl)phenyl)acrylamide]"
5,10 to 100,"C=CC(=O)Nc1cccc(-n2c(=O)n(-c3ccc(Oc4cccc(C)c4C)cc3)c3cnccc32)c1 [Example 147, N-(3-(3-(4-(2,3-dimethylphenoxy)phenyl)-2-oxo-2,3-dihydro-1H-imidazo[4,5-c]pyridin-1-yl)phenyl)acrylamide]"
6,10 to 100,"C=CC(=O)Nc1cccc(-n2c(=O)n(-c3ccc(Oc4cccc(C)c4C)c(Cl)c3)c3cnccc32)c1 [Example 148, N-(3-(3-(3-chloro-4-(2,3-dimethylphenoxy)phenyl)-2-oxo-2,3-dihydro-1H-imidazo[4,5-c]pyridin-1-yl)phenyl)acrylamide]"
7,10 to 100,"C=CC(=O)N1CC[C@@H](n2c(=O)n(-c3ccc(Oc4cccc(Cl)c4)c(F)c3)c3cnccc32)C1 [Example 149, (R)-1-(1-acryloylpyrrolidin-3-yl)-3-(4-(3-chlorophenoxy)-3-fluorophenyl)-1H-imidazo[4,5-c]pyridin-2(3H)-one]"
8,10 to 100,"C=CC(=O)Nc1cccc(-n2c(=O)n(-c3ccc(Oc4cccc(Cl)c4C)cc3)c3cnccc32)c1 [Example 150, N-(3-(3-(4-(3-chloro-2-methylphenoxy)phenyl)-2-oxo-2,3-dihydro-1H-imidazo[4,5-c]pyridin-1-yl)phenyl)acrylamide]"
9,≤ 10,"C=CC(=O)N1CC[C@@H](n2c(=O)n(-c3ccc(Oc4ccccc4)cc3)c3cncc(Cl)c32)C1 [Example 151, (R)-1-(1-acryloylpyrrolidin-3-yl)-7-chloro-3-(4-phenoxyphenyl)-1H-imidazo[4,5-c]pyridin-2(3H)-one]"
10,10 to 100,"C=CC(=O)Nc1cccc(-n2c(=O)n(-c3cccc(Oc4cccc(C)c4)c3)c3cnccc32)c1 [Example 152, N-(3-(2-oxo-3-(3-(m-tolyloxy)phenyl)-2,3-dihydro-1H-imidazo[4,5-c]pyridin-1-yl)phenyl)acrylamide]"
11,10 to 100,"C=CC(=O)N1CC[C@@H](n2c(=O)n(-c3ccc(Oc4cccc(C(C)C)c4)cc3)c3cnccc32)C1 [Example 153, (R)-1-(1-acryloylpyrrolidin-3-yl)-3-(4-(3-isopropylphenoxy)phenyl)-1H-imidazo[4,5-c]pyridin-2(3H)-one]"
